Results taken from ChEMBL document CHEMBL2010638, “Synthesis and evaluation of disulfide bond mimetics of amylin-(1-8) as agents to treat osteoporosis” (Bioorg Med Chem, 2012).
Active and inactive are the calls of the source. No cut-off for these calls is given here. *1 amine or outer side, *2 acyl side, *3 side chain or, on linkers, in order; H or OH if unused. Where a SMILES comes first, the peptide text is derived from it. Bridges are numbered along the chain shown (N, C = ends). Triazole bridges read from a SMILES are 1,4-linked. [ ]: non-standard residue; d: D form. Dap(N3) = [N-]=[N+]=NC[C@H](N)C(=O)O; oXylylene = c1ccc(C[*:2])c(C[*:1])c1; pXylylene = c1cc(C[*:2])ccc1C[*:1]; Pra = C#CC[C@H](N)C(=O)O; CH2CH2 = C(C[*:2])[*:1]; X2 = O=C(CC[*:2])[*:1]; X1 = C(C[*:1])C[*:2]

Tested on: Calvarial osteoblast
Assay: Induction of osteoblast differentiation in rat fetal calvarial osteoblast assessed as [3H]thymidine incorporation at 10^-8 to 10^-10 after 6 hrs
Assay type: functional, cell-based

Question: How did the Activity turn out when `C[C@H](NC(=O)[C@@H]1Cn2cc(nn2)C[C@H](NC(=O)[C@@H](N)CCCCN)C(=O)N[C@@H](CC(N)=O)C(=O)N[C@@H]([C@@H](C)O)C(=O)N[C@@H](C)C(=O)N[C@@H]([C@@H](C)O)C(=O)N1)C(N)=O` (H-K[Pra]NTAT[Dap(N3)]A-NH2; triazole 2-7) was run?
Answer: inactive

Question: Which Activity does the source give for `C[C@H](NC(=O)[C@@H]1CSCc2ccc(cc2)CSC[C@H](NC(=O)[C@@H](N)CCCCN)C(=O)N[C@@H](CC(N)=O)C(=O)N[C@@H]([C@@H](C)O)C(=O)N[C@@H](C)C(=O)N[C@@H]([C@@H](C)O)C(=O)N1)C(N)=O` (H-KCNTATCA-NH2; linker 2-7 via pXylylene) here?
Answer: Active

Question: With `C[C@H](NC(=O)[C@@H]1CSCCSC[C@H](NC(=O)[C@@H](N)CCCCN)C(=O)N[C@@H](CC(N)=O)C(=O)N[C@@H]([C@@H](C)O)C(=O)N[C@@H](C)C(=O)N[C@@H]([C@@H](C)O)C(=O)N1)C(N)=O` (H-KCNTATCA-NH2; linker 2-7 via CH2CH2) as the compound, how does the Activity read?
Answer: inactive

Question: With `C[C@H](NC(=O)[C@@H]1CSCCCSC[C@H](NC(=O)[C@@H](N)CCCCN)C(=O)N[C@@H](CC(N)=O)C(=O)N[C@@H]([C@@H](C)O)C(=O)N[C@@H](C)C(=O)N[C@@H]([C@@H](C)O)C(=O)N1)C(N)=O` (H-KCNTATCA-NH2; linker 2-7 via X1) as the compound, how does the Activity read?
Answer: inactive

Question: With `C[C@H](NC(=O)[C@@H]1CSCCC(=O)NCCCC[C@H](NC(=O)[C@@H](N)CCCCN)C(=O)N[C@@H](CC(N)=O)C(=O)N[C@@H]([C@@H](C)O)C(=O)N[C@@H](C)C(=O)N[C@@H]([C@@H](C)O)C(=O)N1)C(N)=O` (H-KKNTATCA-NH2; linker 2-7 via X2) as the compound, how does the Activity read?
Answer: inactive

Question: For `C[C@H](NC(=O)[C@@H]1CSCc2ccccc2CSC[C@H](NC(=O)[C@@H](N)CCCCN)C(=O)N[C@@H](CC(N)=O)C(=O)N[C@@H]([C@@H](C)O)C(=O)N[C@@H](C)C(=O)N[C@@H]([C@@H](C)O)C(=O)N1)C(N)=O` (H-KCNTATCA-NH2; linker 2-7 via oXylylene), which Activity is on record?
Answer: inactive

Question: How did the Activity turn out when `C[C@H](NC(=O)[C@@H]1CSSC[C@H](NC(=O)[C@@H](N)CCCCN)C(=O)N[C@@H](CC(N)=O)C(=O)N[C@@H]([C@@H](C)O)C(=O)N[C@@H](C)C(=O)N[C@@H]([C@@H](C)O)C(=O)N1)C(N)=O` (H-KCNTATCA-NH2; disulfide 2-7) was run?
Answer: Active
